Measured values from patent US10668034B2, “Pharmaceutical compositions and the treatment of overactive bladder” (Velicept Therapeutics, Inc., priority 2010, dated 2020).
Where two headings read alike, the source gives them in different places.

What was measured:
[1] = system: muscarinic receptor subtypes M1, M2, M3, M4 and M5; conditions: cited from earlier work
[2] = system: isolated rat urinary bladder strips; experiment: EFS-induced contractions of rat isolated urinary bladder strips, beta-3 agonist with or without 10 nM antimuscarinic (Example 3); format: cell-based
Protocol: In this study various combinations of β3-adrenoceptor agonists and antimuscarinics were tested in isolated rat urinary bladder strips. Urinary bladder smooth muscle strips were obtained from female rats (Sprague-Dawley strain, body weight 240-360 g). Two strips per bladder were prepared and connected to tension transducers in 5 ml organ baths containing Krebs-Henseleit solution (kept at 37° C., pH 7.4, gassed with 95% O2/5% CO2). Prazosin (1 μM) was added to the Krebs solution in order to block al-adrenoceptors. Strips were equilibrated for at least 60 min at 1.0 g resting tension, during which tissues were washed every 15 min. Then, each strip was exposed to 80 mM KCl to verify its viability. After another 45 min wash-out period, strips were subjected to EFS (electrical field stimulation parameters: constant current 800 mA; frequency of 15 Hz; square pulse of 0.1 ms, train of 4 s every 2 min). […] Cumulative concentrations of solabegron (10 nM-10 μM), mirabegron (10 nM-10 μM) and CL-316,243 (1 nM-10 μM) were then added in half-log increments. At the end of CRC's, 10 μM forskolin (FSK) was added to determine maximal relaxation (FIG. 1). […] Each CRC was fit using non-linear regression (GraphPad Prism® software) to obtain Emax and pIC50 (−log IC50) values. Mean CRCs for vehicle and treated strips were fit in parallel and statistically compared. The first fit was used to compare Emax values and when these values were not statistically different, a second fit was performed, sharing Emax, in order to obtain pIC50 values for each pair of curves. Differences were considered statistically significant when the null hypothesis could be rejected at a risk a of less than 0.05.

[3] = Drug interaction study, post void residual (PVR) volume by bladder ultrasound; format: in vivo, human
Protocol: A drug interaction study was conducted in healthy human volunteers, using repeat oral doses of solabegron and oxybutynin administered singly as well as in combination with each other, in order to assess the effects on pharmacokinetic and pharmacodynamic parameters, as measured by post void residual (PVR) volumes. PVR was measured in subjects treated with each agent alone as well as in combination at steady-state. The study was a two-cohort randomized, open label, repeat dose, 3-way crossover study in healthy adult subjects. Two marketed formulations of oxybutynin were used in the study: i) Ditropan IR®, which is immediate release (IR) oxybutynin; and ii) Ditropan XL® which is extended release (XL) oxybutynin. The total daily dose given was 20 mg. Solabegron was administered as tablets. […] Each study session was separated by a washout period of at least 5 days. Safety assessments included vital signs, ambulatory blood pressure monitoring (ABPM) physical examinations, clinical laboratory safety tests, 12-lead ECGs, PVR volume, to assess the potential for urinary retention, and adverse events. […] Bladder ultrasound scans to measure PVR volumes were conducted on Day-1 (one day prior to the dosing period) and Day 6 (sixth day of the dosing period) of each study session.

[4] = system: urinary bladder strips from rats; experiment: EFS-induced contractions of rat urinary bladder strips (Example 2); format: cell-based; conditions: for EC50: EFS-induced contractions, read-out: EC50 for inhibiting bladder contraction
Protocol: In order to investigate a possible pharmacological synergy on the combination of the muscarinic and the beta receptor pathways, the combination of the muscarinic antagonist oxybutynin and the beta-3 adrenoceptor agonist CL-316,243 (a very selective and potent rodent β3-AR agonist) was tested on EFS (electrical field stimulation)-induced responses in urinary bladder strips from rats.
Longitudinal strips of rat detrusor muscle were suspended in organ bath chambers containing oxygenated Krebs solution (pH 7.4, gassed with 95% O2 and 5% CO2 at 37° C.). Prazosin (1 μM) was added to the Krebs solution in order to block al-adrenoceptors. Bladder responses were measured using isometric transducers and recorded using a data acquisition system. Tissues were allowed to equilibrate under a resting tension of 1.0 g for 60 min. Following the equilibration period, strips were exposed to KCl (80 mM) to measure their viability. Tissues were washed and equilibrated for another 45 min period. Bladder strips were then subjected to EFS using the following parameters: maximal current 800 mA, frequency of 15 Hz, square pulse of 0.1 ms, trains of 4 s every 2 min. After approximately 15 min (when EFS contractions had stabilized), the selective β2-adrenoceptor antagonist ICI-118551 (30 nM) was incubated for 15 min. After stabilization of the contractile response, a concentration response curve was obtained for each bladder strip by adding CL-316,243 or oxybutynin (1 nM to 10 μM) (or corresponding vehicle) in log unit concentration increments.
In a second series of experiments, a single concentration of oxybutynin at 10 nM (determined from the first series of experiments) was added to organ bath chambers followed by various doses of CL-316,243 to provide a concentration-response curve for CL-316,243.

[5] = in the presence of 10 nM oxybutynin
[6] = in the presence of 10 nM solifenacin
[7] = in the presence of 10 nM tolterodine
[8] = in the presence of oxybutynin (10 nM)

Row | IC50 of beta-3 agonist vs vehicle (in words) [2, 5] | IC50 of beta-3 agonist vs vehicle (in words) [2, 7] | SMILES | Emax of beta-3 agonist vs vehicle (in words) [2, 7] | Emax of beta-3 agonist vs vehicle (in words) [2, 5] | Discrimination between M3 and M1/M4 subtypes (in words) [1] | Selectivity for M3 over the M2/M5 subtypes [1] | other results
1 | – | – | Cc1ccc(O)c([C@H](CCN(C(C)C)C(C)C)c2ccccc2)c1 [tolterodine] | – | – | – | – | Discrimination between the five muscarinic subtypes (in words) [1]: does not discriminate between the five subtypes
2 | significantly lower | significantly lower | Nc1nc(CC(=O)Nc2ccc(CCNC[C@H](O)c3ccccc3)cc2)cs1 [mirabegron] | appeared to be increased | – | – | – | IC50 of beta-3 agonist vs vehicle (in words) [2, 6]: significantly lower
3 | significantly lower | significantly lower | O=C(O)c1cccc(-c2cccc(NCCNC[C@H](O)c3cccc(Cl)c3)c2)c1 [solabegron, 3′-[(2-{[(2R)-2-(3-chlorophenyl)-2-hydroxyethyl]amino}ethyl)amino]biphenyl-3-carboxylic acid] | significantly increased | significantly increased | – | – | Mean increase from baseline in PVR volume ([3]; healthy human subjects, repeat oral doses for 5 days, Day 6 vs Day-1, solabegron 200 mg BID, oxybutynin IR 5 mg QID, oxybutynin XL 10 mg BID): 4.4 mL; Changes in PVR volume (in words) ([3]; healthy subjects): minimal changes; Emax of beta-3 agonist vs vehicle (in words) [2, 6]: significantly increased
4 | – | – | O=C(O[C@H]1CN2CCC1CC2)N1CCc2ccccc2[C@@H]1c1ccccc1 [solifenacin] | – | – | do not distinguish | ~10 fold | –
5 | – | – | CCN(CC)CC#CCOC(=O)C(O)(c1ccccc1)C1CCCCC1 (stereo not shown) [oxybutynin, 4-diethylaminobut-2-ynyl 2-cyclohexyl-2-hydroxy-2-phenyl-ethanoate] | – | – | do not distinguish | ~10 fold | Effect of oxybutynin alone on EFS-induced responses (in words) ([4]; oxybutynin at a concentration of 10 nM, first series of experiments): minimal contraction

Row | SMILES | IC50 of beta-3 agonist vs vehicle (in words) [2, 5] | IC50 of beta-3 agonist vs vehicle (in words) [2, 7] | Emax of beta-3 agonist vs vehicle (in words) [2, 7] | Emax of beta-3 agonist vs vehicle (in words) [2, 5] | Discrimination between M3 and M1/M4 subtypes (in words) [1] | Selectivity for M3 over the M2/M5 subtypes [1] | other results
6 | C[C@H](Cc1ccc2c(c1)OC(C(=O)[O-])(C(=O)[O-])O2)NC[C@H](O)c1cccc(Cl)c1.[Na+].[Na+] [CL-316,243] | significantly decreased | – | significantly increased | significantly increased | – | – | Maximal inhibition of EFS-induced contractions ([4]; CL-316,243 alone): 65%; EC50 ([4]; CL-316,243 alone): 7.2 nM; Shift to the left of concentration-response curve ([4]; in the presence of a minimally effective dose of oxybutynin (10 nM)): ~3.5 fold; Maximal inhibition of EFS-induced contractions [4, 8]: 80%; EC50 [4, 8]: 2.1 nM
